Test results published in patent US10226536B2, “Polysaccharide therapeutic conjugates” (priority 2011, dated 2019).

Columns and labels:
[1] = system: Lrat−/− mice; conditions: dark room reared Lrat−/− mice; 6 gavages of 0.12 mg each over two weeks; vs untreated control Lrat−/− mice; cited from earlier work
[2] = 9-cis-retinoid concentrations in plasma after gavage; type: in vivo, mouse
Description: (§1) We designed a polysaccharide therapeutic conjugate composition for the sustained release of 9-cis-retinyl esters to treat animal models of human retinal diseases, such as LCA. […] Unless initial high drug blood levels are unfavorable, this pharmacokinetic property could be beneficial because it relates to the therapeutic window, especially for drugs targeting peripheral tissues such as the retina through protein-mediated and protein-independent transport systems. A bolus dose could also establish a reversible depot of the drug in other tissues, thereby reducing the need for frequent dosing.

[3] = system: Lrat−/− mice; test: Oral gavage of 9-cis-R-Ac in LCA mouse model with LRAT deficiency; type: in vivo
Description: as §1

[4] = system: Rpe65−/− mice; test: Retinoid treatment in LCA mouse model with RPE65 deficiency; type: in vivo
Description: as §1

Question: With `CC(=O)OC/C=C(C)/C=C/C=C(C)\C=C\C1=C(C)CCCC1(C)C` [9-cis-R-Ac, 9-cis-retinyl acetate] as the compound, how does the ROS layer thickness [1] read?
Answer: substantially thicker

Question: And the RPE-ROS interface [1]?
Answer: closer apposition

Question: What about the “9-cis-retinoid concentrations in plasma” value ([2]; 5 hours after oral administration) of the same compound?
Answer: dropped markedly to low levels

Question: And the “9-cis-retinoid concentrations in plasma” value ([2]; after gavage)?
Answer: increased rapidly to high levels

Question: And the retinal morphology [3]?
Answer: preserves retinal morphology

Question: What about the visual function [3] of the same compound?
Answer: improves visual function

Question: What about the retinal morphology ([4]; oral gavage, Rpe65−/− mice) of the same compound?
Answer: preserves retinal morphology

Question: And the visual function ([4]; oral gavage, Rpe65−/− mice)?
Answer: improves visual function

Question: Which visual function ([4]; single dose, Rpe65−/− mice kept under laboratory lighting conditions) does the source give for `CC1=C(/C=C/C(C)=C\C=C\C(C)=C\C=O)C(C)(C)CCC1` [9-cis-retinal] here?
Answer: rescued visual function for months
